From patent publication US10294230B2, “3,3-difluoropiperidine carbamate heterocyclic compounds as NR2B NMDA receptor antagonists” (Rugen Holdings (Cayman) Limited, priority 2015, dated 2019) come the findings set out here.

The test system of this test is KCl-induced cortical spreading depression. Briefly: Cortical Spreading Depression (CSD), aura phase of migraine model. The class given is in vivo. The settings on record: rats. On the procedure: The cortical spreading depression model is utilized to investigate whether treatment with compounds of the present invention affect electrophysiological and hemodynamic events in a rat model of migraine.
Rats were anesthetized with 5% isoflurane (in 70% N2O and 30% O2; flow 300 ml/min) and placed in a stereotactic frame. […] The rectal temperature was maintained at 37.0±1.0° C. with a homeothermic blanket system. The skin was opened by a medial incision and retracted laterally. Three burr holes were drilled under saline cooling over the right hemisphere at the following coordinates (mm from bregma): (1) posterior 4.5, lateral, 2.0 (occipital cortex): KCl application site; (2) posterior 0.5, lateral 2.0 (parietal cortex): LDF recording site; (3) anterior 2, lateral 2 (frontal cortex): DC potential recording site. A laser-Doppler flow probe (Oxyflow, Oxford Optronics, UK) to monitor CBF and an invasive Ag/AgCl electrode for measuring direct current (DC) potential shifts were placed in the parietal and frontal cortex burr holes on the intact dura and in the cortex, respectively. The laser-Doppler flow probe was positioned in an area free of large pial and dural vessels to minimize a large-vessel contribution to the signal. For the DC-potential measurement, a reference electrode was fixed in the neck. Dura overlying the occipital cortex was gently removed and care was taken to avoid bleeding. After surgical preparation, the cortex was allowed to recover for 15 minutes under saline irrigation. A cotton ball (2 mm diameter) soaked with 1M KCl was placed on the pial surface and kept moist by placing 5 μl of KCl solution every 15 minutes. Test compound or vehicle was administered ten (10) minutes prior to CSD initiation. […] The number of KCl-induced CSDs was counted for 2 hours. The CBF and DC-potentials were monitored continuously starting from 5 minutes before KCl exposure.
Test compound E1-1.2 was administered as a mesylate salt (mpk based on molecular weight of the mesylate salt).
The data was collected in Windaq acquisition software (Dataq Instruments, USA) at 20 kHz. The raw data was analyzed in Clampfit program (Axon Instruments, USA). The signals were low pass filtered (cut off range 5-10000 Hz) that CSD episodes in DC and CBF could be confirmed. The following parameters were analyzed: i) the number, duration and amplitude of DC-potentials, and ii) the number and amplitude of CBF events.
Doses were given as milligram per kilogram (mpk). […] Bars represent mean±Standard Error of Mean (SEM), and differences were considered to be statistically significant at the P<0.05 level (n=8, * different from vehicle group). Statistical analysis was performed using StatsDirect statistical software. Differences between groups were analyzed by using 1-way ANOVA and Dunnett's post hoc test.

Where [1] appears, read: E1-1.2 at various doses, MK-801 1.25 mg/kg.

SMILES strings stand for the structures.

With `Cc1ccc(COC(=O)N2CC[C@H](CNc3nccn4cnnc34)C(F)(F)C2)cc1` [Compound E1-1.2, (+)-R-4-methylbenzyl 4-(([1,2,4]triazolo[4,3-a]pyrazin-8-ylamino)methyl)-3,3-difluoropiperidine-1-carboxylate], the “magnitude of CBF vs vehicle” value is reported as “unchanged”. Moreover, the “number of DC potentials vs vehicle” value (3 mpk, 10 mpk and 30 mpk, mesylate salt) was “significantly decreased”. The “number of CBF events vs vehicle” value (E1-1.2 at 10 mg/kg, MK-801 at 1.25 mg/kg) is given as “decreased”. In addition, under setting [1], the “amplitude of DC potentials vs vehicle” value is on record as “not statistically different” and the “duration of DC potentials vs vehicle” value is “not statistically different”.
